Data: PMC9299836 (eLife, 2022)
Values joined by “and” are separate entries in the source; they are usually repeats but may differ in a detail not shown here. Equal entries are not always repeated.

How the values were obtained:
mGluR2 [1] = biological target: mGluR2 (Mus musculus, UniProt Q14BI2, A548F); test: Live-cell FRET, azi-CRD (cysteine-rich domain) sensor in HEK293T cells; details: for Normalized FRET response, Mean (azi-CRD agonist DRC): maximal responses normalized to 1mM glutamate
mGluR2 [2] = biological target: T1, mGluR2 (Mus musculus, UniProt Q14BI2); test: Live-cell FRET, SNAP-m2 (VFT domain) inter-subunit sensor in HEK293T cells; details: for Normalized FRET response, Mean (SNAP-m2 agonist DRC): maximal responses normalized to 1mM glutamate;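 on all read-outs here: apparent FRET efficiency from whole-membrane ROIs of single cells, corrected for donor bleed-through and background, ΔFRET as treatment minus pretreatment signal, recorded at room temperature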
T1 sequence (Q14BI2 19-872): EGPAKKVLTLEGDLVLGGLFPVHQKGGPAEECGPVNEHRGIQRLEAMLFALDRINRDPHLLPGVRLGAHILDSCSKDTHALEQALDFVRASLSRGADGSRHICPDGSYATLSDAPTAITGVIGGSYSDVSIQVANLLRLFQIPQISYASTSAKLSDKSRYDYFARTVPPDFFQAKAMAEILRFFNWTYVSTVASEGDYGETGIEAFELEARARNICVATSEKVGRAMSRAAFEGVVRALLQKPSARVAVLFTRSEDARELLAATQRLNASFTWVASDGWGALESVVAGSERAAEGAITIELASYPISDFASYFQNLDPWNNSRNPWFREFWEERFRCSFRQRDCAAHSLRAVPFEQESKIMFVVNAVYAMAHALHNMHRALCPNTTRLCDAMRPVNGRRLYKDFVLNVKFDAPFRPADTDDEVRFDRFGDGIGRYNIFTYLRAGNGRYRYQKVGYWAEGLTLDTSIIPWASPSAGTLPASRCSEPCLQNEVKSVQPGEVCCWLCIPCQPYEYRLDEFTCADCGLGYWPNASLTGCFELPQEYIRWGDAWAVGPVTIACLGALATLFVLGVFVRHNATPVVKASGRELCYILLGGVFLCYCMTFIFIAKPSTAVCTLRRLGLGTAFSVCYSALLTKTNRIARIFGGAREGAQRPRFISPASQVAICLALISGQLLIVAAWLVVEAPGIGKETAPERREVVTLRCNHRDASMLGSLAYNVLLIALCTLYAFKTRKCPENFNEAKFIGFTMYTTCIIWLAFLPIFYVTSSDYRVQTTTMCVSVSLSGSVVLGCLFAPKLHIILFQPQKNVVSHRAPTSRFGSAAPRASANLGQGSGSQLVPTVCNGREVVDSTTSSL

mGluR2 [3] = biological target: mGluR2 (Mus musculus, UniProt Q14BI2, INS715F); test: Live-cell FRET, azi-ECL2 (7TM domain, extracellular loop 2) sensor in HEK293T cells;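 further: Cy3/Cy5 click-labeled sensor, whole-membrane ROIs per cell, apparent FRET after bleed-through correction, ΔFRET as treatment minus pre-treatment signal, at room temperature, at least three biological replicates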
Sequence of mGluR2 (Mus musculus, UniProt Q14BI2, INS715F) (Q14BI2 with tags, fused parts or gaps INS715F): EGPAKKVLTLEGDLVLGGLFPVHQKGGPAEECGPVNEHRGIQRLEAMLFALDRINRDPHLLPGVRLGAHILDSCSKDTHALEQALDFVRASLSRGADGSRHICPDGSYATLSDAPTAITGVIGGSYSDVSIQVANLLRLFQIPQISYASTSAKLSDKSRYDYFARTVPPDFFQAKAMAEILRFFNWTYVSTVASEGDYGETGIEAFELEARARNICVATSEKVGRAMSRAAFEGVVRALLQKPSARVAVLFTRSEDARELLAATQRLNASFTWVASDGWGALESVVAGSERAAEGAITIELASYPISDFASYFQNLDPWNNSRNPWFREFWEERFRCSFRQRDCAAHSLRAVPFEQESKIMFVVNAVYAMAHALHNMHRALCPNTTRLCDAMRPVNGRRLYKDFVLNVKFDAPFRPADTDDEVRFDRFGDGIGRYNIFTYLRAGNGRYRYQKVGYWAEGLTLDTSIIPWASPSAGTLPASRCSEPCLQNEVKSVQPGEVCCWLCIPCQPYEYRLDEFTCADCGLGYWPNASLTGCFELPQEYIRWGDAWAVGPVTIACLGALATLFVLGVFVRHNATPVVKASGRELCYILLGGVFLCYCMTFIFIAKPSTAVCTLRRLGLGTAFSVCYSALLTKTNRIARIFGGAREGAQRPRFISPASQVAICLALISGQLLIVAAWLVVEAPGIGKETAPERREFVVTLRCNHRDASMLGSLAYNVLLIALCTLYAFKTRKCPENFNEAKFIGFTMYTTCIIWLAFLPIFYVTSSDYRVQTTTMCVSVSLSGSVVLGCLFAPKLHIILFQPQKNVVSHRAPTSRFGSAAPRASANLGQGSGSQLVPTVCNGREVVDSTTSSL

mGluR2 [4] = biological target: T1, mGluR2; test: Functional calcium imaging, SNAP-mGluR2 (no FLAG-tag) with chimeric G protein Gqo5 in HEK293T cells; format: cell-based; design: Full length mGluR2 construct with an amber codon (TAG) mutation of amino acid A548 (azi-CRD) or N-terminal SNAP-tag (SNAP-mGluR2); host or cells: HEK293T; details: for Intracellular Ca2+ response, Mean / Intracellular Ca2+ response: normalized to 1mM glutamate; for Intracellular Ca2+ response: single experiments

Sequence of mGluR2 (Mus musculus, UniProt Q14BI2, A548F) (Q14BI2 19-872 A548F): as the sequence (Q14BI2 19-872) above, with A530F counted along it

N[C@@]1(C(=O)O)CO[C@H]2[C@H](C(=O)O)[C@H]21 [LY379268]
EC50 (mGluR2 [1]; Live-cell FRET titration EC50, azi-CRD, agonist alone, individual experiments): 12.7 nM and 14.3 nM and 9.97 nM and 8.96 nM and 10.9 nM and 13.4 nM and 14.5 nM and 16 nM and 14.4 nM and 12.2 nM and 11.3 nM and 13.2 nM and 11.7 nM and 11.4 nM and 10.4 nM and 14.2 nM and 9.03 nM and 7.75 nM
EC50 (mGluR2 [1]; Mean half-maximum effective concentration (EC50), azi-CRD sensor, orthosteric agonist alone, nM for LY379268 (footnote)): 12.1 nM
Hill slope (mGluR2 [1]; azi-CRD sensor, orthosteric agonist alone): 1.36
Live-cell FRET max response normalized to 1mM glutamate (mGluR2 [1]; azi-CRD sensor, LY379268, individual values (N=25)): 1.396 and 1.075 and 1.11 and 1.161 and 1.042 (2×) and 1.039 and 1.015 and 1.054 and 0.99 and 1.034 and 0.9879 and 0.9896 and 1.016 and 1.007 and 1.046 and 1.009 (2×) and 0.9955 and 1.0569 and 1.003 and 0.9915 and 1.157 and 1.205 and 1.123
Mean max response (normalized max ΔFRET) (mGluR2 [1]; azi-CRD, agonist alone (1 mM glutamate, 100 μM DCG-IV, 20 μM LY379268, 100 μM APDC), normalized to 1 mM glutamate): 1.06
Normalized Max ΔFRET, Mean (mGluR2 [1]; azi-CRD, 20μM agonist, mean of cells, normalized to 1mM glutamate): 106.212
Normalized FRET response, Mean (azi-CRD agonist DRC) (mGluR2 [1]; log[ligand] (M) -4.69897): 1.062
Normalized FRET response, Mean (azi-CRD agonist DRC) (mGluR2 [1]; log[ligand] (M) -6): 1.058
Normalized FRET response, Mean (azi-CRD agonist DRC) (mGluR2 [1]; log[ligand] (M) -7.1549): 0.9652
Normalized FRET response, Mean (azi-CRD agonist DRC) (mGluR2 [1]; log[ligand] (M) -7.52288): 0.8398
Normalized FRET response, Mean (azi-CRD agonist DRC) (mGluR2 [1]; log[ligand] (M) -8): 0.4669
Normalized FRET response, Mean (azi-CRD agonist DRC) (mGluR2 [1]; log[ligand] (M) -8.39794): 0.1943
Normalized FRET response, Mean (azi-CRD agonist DRC) (mGluR2 [1]; log[ligand] (M) -8.82391): 0.06461
Normalized FRET response, Mean (azi-CRD agonist DRC) (mGluR2 [1]; log[ligand] (M) -9.52288): 0.04231
Normalized FRET response, Mean (azi-CRD agonist DRC) (mGluR2 [1]; log[ligand] (M) -10): 0
Emax (mGluR2 [2]; HEK-293T, read-out: Normalized Max ΔFRET, SNAP-m2, 20μM agonist, individual cells, normalized to 1mM glutamate): 101%
EC50 (mGluR2 [2]; Mean half-maximum effective concentration (EC50), SNAP-m2 sensor, orthosteric agonist alone, nM for LY379268 (footnote)): 30.6 nM
Mean max response (normalized max ΔFRET) (mGluR2 [2]; SNAP-m2 (VFT), agonist alone (1 mM glutamate, 100 μM DCG-IV, 20 μM LY379268, 100 μM APDC), normalized to 1 mM glutamate): 1.01
Normalized Max ΔFRET, Mean (mGluR2 [2]; SNAP-m2, 20μM agonist, mean of cells, normalized to 1mM glutamate): 101.061
Hill slope (mGluR2 [2]; SNAP-m2 sensor, orthosteric agonist alone): –1.12
Live-cell FRET max response normalized to 1mM glutamate (mGluR2 [2]; SNAP-m2 sensor, LY379268, individual values (N=23)): 0.9967 and 0.9702 and 0.9948 and 1.036 and 0.962 and 0.9651 and 1.05 (3×) and 1.035 and 1.049 and 1.015 and 0.9906 and 1.057 and 1.051 and 0.9532 and 0.9752 and 0.9335 and 1.106 and 1.013 and 0.9759 and 0.9961 and 1.019
Normalized FRET response, Mean (SNAP-m2 agonist DRC) (mGluR2 [2]; log[ligand] (M) -6): -1.011
Normalized FRET response, Mean (SNAP-m2 agonist DRC) (mGluR2 [2]; log[ligand] (M) -6.69897): -1.017
Normalized FRET response, Mean (SNAP-m2 agonist DRC) (mGluR2 [2]; log[ligand] (M) -7.1549): -0.7975
Normalized FRET response, Mean (SNAP-m2 agonist DRC) (mGluR2 [2]; log[ligand] (M) -7.52288): -0.6707
Normalized FRET response, Mean (SNAP-m2 agonist DRC) (mGluR2 [2]; log[ligand] (M) -8): -0.3677
Normalized FRET response, Mean (SNAP-m2 agonist DRC) (mGluR2 [2]; log[ligand] (M) -8.39794): -0.1637
Normalized FRET response, Mean (SNAP-m2 agonist DRC) (mGluR2 [2]; log[ligand] (M) -8.82391): -0.07424
Normalized FRET response, Mean (SNAP-m2 agonist DRC) (mGluR2 [2]; log[ligand] (M) -9.52288): -0.01697
Normalized FRET response, Mean (SNAP-m2 agonist DRC) (mGluR2 [2]; log[ligand] (M) -10): -0.0059
Normalized FRET response, Mean (SNAP-m2 agonist DRC) (mGluR2 [2]; log[ligand] (M) -10.699): 0
EC50 (mGluR2 [3]; EC50, live-cell FRET titration, azi-ECL2 sensor, LY379268, individual cell values (N=9)): 6.91 nM and 29 nM and 9.62 nM and 9.94 nM and 8.57 nM and 6.02 nM and 9.91 nM and 5.72 nM and 5.97 nM
EC50 (mGluR2 [3]; Mean half-maximum effective concentration (EC50), azi-ECL2 sensor, orthosteric agonist alone, nM for LY379268 (footnote)): 10.2 nM
Mean max response (normalized max ΔFRET) (mGluR2 [3]; azi-ECL2, agonist alone (1 mM glutamate, 100 μM DCG-IV, 20 μM LY379268, 100 μM APDC), normalized to 1 mM glutamate): 1.14
Normalized ΔFRET response, Mean (agonist DRC) (mGluR2 [3]; azi-ECL2, log[agonist] (M) -4.69897, normalized to 1 mM glutamate): 1.14
Normalized ΔFRET response, Mean (agonist DRC) (mGluR2 [3]; azi-ECL2, log[agonist] (M) -6, normalized to 1 mM glutamate): 1.108
Normalized ΔFRET response, Mean (agonist DRC) (mGluR2 [3]; azi-ECL2, log[agonist] (M) -7.1549, normalized to 1 mM glutamate): 1.024
Normalized ΔFRET response, Mean (agonist DRC) (mGluR2 [3]; azi-ECL2, log[agonist] (M) -7.52288, normalized to 1 mM glutamate): 0.9098
Normalized ΔFRET response, Mean (agonist DRC) (mGluR2 [3]; azi-ECL2, log[agonist] (M) -8, normalized to 1 mM glutamate): 0.6174
Normalized ΔFRET response, Mean (agonist DRC) (mGluR2 [3]; azi-ECL2, log[agonist] (M) -8.39794, normalized to 1 mM glutamate): 0.327
Normalized ΔFRET response, Mean (agonist DRC) (mGluR2 [3]; azi-ECL2, log[agonist] (M) -8.82391, normalized to 1 mM glutamate): 0.1901
Normalized ΔFRET response, Mean (agonist DRC) (mGluR2 [3]; azi-ECL2, log[agonist] (M) -9.52288, normalized to 1 mM glutamate): 0.0544
Normalized ΔFRET response, Mean (agonist DRC) (mGluR2 [3]; azi-ECL2, log[agonist] (M) -10, normalized to 1 mM glutamate): 0
Normalized ΔFRET response, Mean (agonist DRC) (mGluR2 [3]; azi-ECL2, log[agonist] (M) -10.699, normalized to 1 mM glutamate): 0
Normalized Max ΔFRET, Mean (mGluR2 [3]; azi-ECL2, 20μM agonist, mean of cells, normalized to 1mM glutamate): 114.025
Hill slope (mGluR2 [3]; azi-ECL2 sensor, orthosteric agonist alone): 1.03
Live-cell FRET max response normalized to 1mM glutamate (mGluR2 [3]; azi-ECL2 sensor, LY379268, individual values (N=22)): 0.9523 and 0.965 and 0.9976 and 1.05 and 1.063 and 1.017 and 1.16 and 1.1 and 1.538 and 1.083 and 1.3913 and 1.033 and 1.4421 and 1.297 and 1.208 and 1.454 and 1.223 and 1.042 and 0.9949 and 1.12 and 0.9608 and 0.9946
Normalized Max Intracellular Ca2+ Response, individual experiments (mGluR2 [4]; 100 μM DCG-IV, 10 μM LY379268, 300 μM APDC, normalized to 1 mM glutamate, single replicate): 1.134 and 1.073 and 0.9696
Normalized Max Intracellular Ca2+ Response, mean (mGluR2 [4]; 1 mM Glu, 100 μM DCG-IV, 10 μM LY379268, 300 μM APDC, normalized to 1 mM glutamate): 1.059
Intracellular Ca2+ response, Mean (mGluR2 [4]; log[agonist] (M) -5): 1.059
Intracellular Ca2+ response (mGluR2 [4]; log[agonist] (M) -5): 1.059
Intracellular Ca2+ response, Mean (mGluR2 [4]; log[agonist] (M) -5.30103): 1.029
Intracellular Ca2+ response (mGluR2 [4]; log[agonist] (M) -5.30103): 1.067 and 1.001 and 1.018
Intracellular Ca2+ response, Mean (mGluR2 [4]; log[agonist] (M) -5.69897): 1.028
Intracellular Ca2+ response (mGluR2 [4]; log[agonist] (M) -5.69897): 0.9461 and 1.043 and 1.094
Intracellular Ca2+ response, Mean (mGluR2 [4]; log[agonist] (M) -6): 1.014
Intracellular Ca2+ response (mGluR2 [4]; log[agonist] (M) -6): 0.8943 and 1.055 and 1.093
Intracellular Ca2+ response, Mean (mGluR2 [4]; log[agonist] (M) -6.60206): 0.8831
Intracellular Ca2+ response (mGluR2 [4]; log[agonist] (M) -6.60206): 0.7751 and 0.9366 and 0.9375
Intracellular Ca2+ response, Mean (mGluR2 [4]; log[agonist] (M) -7.1549): 0.4554
Intracellular Ca2+ response (mGluR2 [4]; log[agonist] (M) -7.1549): 0.4206 and 0.5128 and 0.4328
Intracellular Ca2+ response, Mean (mGluR2 [4]; log[agonist] (M) -7.52288): 0.1775
Intracellular Ca2+ response (mGluR2 [4]; log[agonist] (M) -7.52288): 0.2096 and 0.1787 and 0.1441
Intracellular Ca2+ response, Mean (mGluR2 [4]; log[agonist] (M) -8): 0.00736
Intracellular Ca2+ response, Mean (mGluR2 [4]; log[agonist] (M) -8.39794): 0
Intracellular Ca2+ response (mGluR2 [4]; log[agonist] (M) -8.39794): 0
Intracellular Ca2+ response, Mean (mGluR2 [4]; log[agonist] (M) -8.82391): 0
Intracellular Ca2+ response (mGluR2 [4]; log[agonist] (M) -8.82391): 0
Intracellular Ca2+ response, Mean (mGluR2 [4]; log[agonist] (M) -9.52288): 0
Intracellular Ca2+ response (mGluR2 [4]; log[agonist] (M) -9.52288): 0
Intracellular Ca2+ response, Mean (mGluR2 [4]; log[agonist] (M) -10): 0
Intracellular Ca2+ response (mGluR2 [4]; log[agonist] (M) -10): 0
EC50 (mGluR2 [4]; one value per experiment, read-out: EC50, intracellular Ca2+ response): 84.9 nM and 98.9 nM and 71 nM
